# PubChem BioAssay AID743016 (Vanderbilt Specialized Chemistry Center, 2013)
# Biological target: Mas-related G-protein coupled receptor member X1 (Homo sapiens) (UniProt Q96LB2)
# Test: MrgX1 positive allosteric modulators, dose response, cell-based, HEK293, calcium flux, BAM8-22 (AID 743016)
# Settings: HEK293-MrgX1, Fluo4 calcium flux, BAM8-22 potentiation; with BAM 0.1 µM
# Mas-related G-protein coupled receptor member X1 (Homo sapiens), sequence (Q96LB2 whole entry, looked up): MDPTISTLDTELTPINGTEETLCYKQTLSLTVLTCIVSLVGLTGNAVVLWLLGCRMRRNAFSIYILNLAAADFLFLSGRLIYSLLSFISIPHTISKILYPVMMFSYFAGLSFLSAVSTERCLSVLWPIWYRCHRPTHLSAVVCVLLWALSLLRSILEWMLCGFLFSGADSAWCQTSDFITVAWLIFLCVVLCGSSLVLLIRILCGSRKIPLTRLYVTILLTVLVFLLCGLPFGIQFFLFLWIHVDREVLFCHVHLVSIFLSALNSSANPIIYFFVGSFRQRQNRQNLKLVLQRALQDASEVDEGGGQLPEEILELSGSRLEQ
row,SMILES,EC50 [nM]
1,COc1ccc(Cl)cc1NC(=O)c1ccccc1NS(C)(=O)=O,1010
2,COc1ccc(C)cc1NC(=O)c1ccccc1NS(C)(=O)=O,2340
3,CCOc1ccccc1NC(=O)c1ccccc1NS(C)(=O)=O,1910
4,CCOc1ccccc1NC(=O)c1ccccc1NS(=O)(=O)CC1CC1,4470
5,CCOc1ccccc1NC(=O)c1ccccc1N(C)S(C)(=O)=O,1390
6,CCOc1ccccc1NC(=O)c1ccccc1NS(=O)(=O)C(C)C,1820
7,COc1ccc(NC(=O)c2ccccc2NS(=O)(=O)c2cccnc2Cl)c(OC)c1,2910
8,COc1ccccc1NC(=O)c1ccccc1NS(C)(=O)=O,3060
9,COC(=O)c1ccccc1NC(=O)c1ccccc1N(C)S(C)(=O)=O,1570

# Now those with a lower EC50, led by results:
row,EC50 [nM],SMILES
1,910,CCOc1ccccc1NC(=O)c1ccccc1NS(=O)(=O)CC
2,500,CSc1ccccc1NC(=O)c1ccccc1N(C)S(C)(=O)=O
3,420,CSc1ccccc1NC(=O)c1ccccc1NS(C)(=O)=O
4,380,CCOc1ccccc1NC(=O)c1ccccc1NS(=O)(=O)CCCl
5,190,CCOc1ccccc1NC(=O)c1ccccc1NS(=O)(=O)C1CC1
6,150,COc1ccc(NC(=O)c2ccccc2NS(C)(=O)=O)c(OC)c1
